Source: US12723063B2, “GIPR-agonist compounds” (Eli Lilly and Company, priority 2019, dated 2026)
*1 amine or outer side, *2 acyl side, *3 side chain or, on linkers, in order; H or OH if unused. Where a SMILES comes first, the peptide text is derived from it. Side-chain parts run from the residue outwards. [ ]: non-standard residue; d: D form. The star is where a group is joined. C20 diacid = O=C(O)CCCCCCCCCCCCCCCCCCC(=O)*; γGlu = O=C(O)[C@H](CCC(=O)[*:2])N[*:1]; αMeY = C[C@](N)(Cc1ccc(O)cc1)C(=O)O; αMeL = CC(C)C[C@](C)(N)C(=O)O; AEEA = NCCOCCOCC(=O)O; Aib = CC(C)(N)C(=O)O

Key:
Assay in all cases: cAMP functional assay (HTRF) in HEK293 cells in presence of 0.1% casein
Format in all cases: cell-based
[1] = biological target: T1, human GLP-1 receptor (GLP-1R) (Homo sapiens, UniProt P43220); settings: HEK293 cells expressing human GLP-1R, geometric mean, read-out: hGLP1R cAMP Rel EC50 nM (SEM, n)
T1 construct: expressed in transfected cells; host or cells: HEK293
T1 sequence (P43220 24-463): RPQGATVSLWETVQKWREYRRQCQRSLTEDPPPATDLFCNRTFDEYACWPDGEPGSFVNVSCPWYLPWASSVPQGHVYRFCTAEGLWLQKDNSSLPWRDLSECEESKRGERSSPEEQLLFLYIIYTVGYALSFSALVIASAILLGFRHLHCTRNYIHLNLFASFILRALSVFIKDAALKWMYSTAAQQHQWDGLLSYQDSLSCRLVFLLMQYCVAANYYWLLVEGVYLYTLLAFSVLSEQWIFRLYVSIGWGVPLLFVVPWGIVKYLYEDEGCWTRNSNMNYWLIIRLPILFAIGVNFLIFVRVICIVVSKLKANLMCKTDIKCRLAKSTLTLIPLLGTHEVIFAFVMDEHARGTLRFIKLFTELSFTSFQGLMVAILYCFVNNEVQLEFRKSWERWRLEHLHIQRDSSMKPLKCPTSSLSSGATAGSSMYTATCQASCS
Experimental: (§1) Each receptor over-expressing cell line (20 μl) is treated with the test peptide in DMEM (Gibco Cat #31053) supplemented with 0.1% Casein (Sigma Cat #C4765), 250 μM IBMX, 1× GlutaMAX™ (Gibco Cat #35050), and 20 mM HEPES (HyClone Cat #SH30237.01) in a 20 μl assay volume. After incubating for 60 minutes at room temperature, the resulting increase in intracellular CAMP is quantitatively determined using the CisBio CAMP Dynamic 2 HTRF Assay Kit (62AM4PEJ). The Lysis buffer containing cAMP-d2 conjugate (20 μl) and the antibody anti-cAMP-Eu3+-Cryptate (20 μl) are then added to determine the cAMP level. After incubating 60 minutes at room temperature, HTRF signal is detected with an Envision 2104 plate reader (PerkinElmer). Fluorescent emission at 620 nm and at 665 nm is measured and the ratio between 620 nm and at 665 nm is calculated and then are converted to nM cAMP per well using a cAMP standard curve. Dose response curves of compounds are plotted as the percentage of stimulation normalized to minimum (buffer only) and maximum (maximum concentration of each control ligand) values and analyzed using a four parameter non-linear regression fit with a variable slope (Genedata Screener 13). EC50 is the concentration of compound causing half-maximal simulation in a dose response curve. A relative EC50 value is derived by non-linear regression analysis using the percent maximal response vs, the concentration of peptide added, fitted to a four-parameter logistic equation.
(§2) Intracellular cAMP levels are determined by extrapolation using a standard curve. Dose response curves of compounds are plotted as the percentage of stimulation normalized to minimum (buffer only) and maximum (maximum concentration of each control ligand) values and analyzed using a four-parameter non-linear regression fit with a variable slope (Genedata Screener 13). EC50 is the concentration of compound causing half-maximal simulation in a dose response curve. Each relative EC50 value for the geometric mean calculation is determined from a curve fitting.
(§3) Concentration response curves of compounds are plotted as the percentage of stimulation normalized to minimum (buffer only) and maximum (maximum concentration of each control ligand) values and analyzed using a four-parameter non-linear regression fit with a variable slope (Genedata Screener 13). EC50 is the concentration of compound causing half-maximal simulation in a dose response curve. […] The standard error of the mean is reported:
(§4) [formula] • The log transform accounts for the EC50 values falling on a multiplicative, rather than an arithmetic scale.
(§5) For illustration, as shown by Example 1, the peptide is tested in 8 runs of the hGIPR CAMP assay. […] Accordingly, each Example will use the geometric mean of those values to normalize the Example assay runs.

[2] = biological target: T2, human glucagon receptor (GcgR) (Homo sapiens, UniProt P47871); settings: HEK293 cells expressing human GcgR, geometric mean, read-out: hGcgR cAMP Rel EC50 nM (SEM, n)
T2 construct: expressed in transfected cells; host or cells: HEK293
T2 sequence (P47871 26-477): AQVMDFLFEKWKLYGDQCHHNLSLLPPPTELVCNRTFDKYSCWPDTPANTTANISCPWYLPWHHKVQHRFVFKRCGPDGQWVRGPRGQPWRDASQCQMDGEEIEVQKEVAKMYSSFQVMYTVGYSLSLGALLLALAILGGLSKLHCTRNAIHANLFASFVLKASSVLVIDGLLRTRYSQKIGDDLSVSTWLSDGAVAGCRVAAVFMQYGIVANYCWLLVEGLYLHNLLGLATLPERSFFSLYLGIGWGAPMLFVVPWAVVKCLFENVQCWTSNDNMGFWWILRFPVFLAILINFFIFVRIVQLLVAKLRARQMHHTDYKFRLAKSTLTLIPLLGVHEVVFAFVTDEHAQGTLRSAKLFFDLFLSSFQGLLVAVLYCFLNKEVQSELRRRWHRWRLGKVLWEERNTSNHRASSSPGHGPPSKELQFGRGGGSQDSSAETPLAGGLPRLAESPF
Experimental: as §1, §2, §3, §4, §5

[3] = biological target: T3, human glucose-dependent insulinotropic peptide receptor (GIPR) (Homo sapiens, UniProt P48546); settings: HEK293 cells expressing human GIPR, geometric mean, read-out: hGIPR cAMP Rel EC50 nM (SEM, n)
T3 construct: expressed in transfected cells; host or cells: HEK293
T3 sequence (P48546 22-466): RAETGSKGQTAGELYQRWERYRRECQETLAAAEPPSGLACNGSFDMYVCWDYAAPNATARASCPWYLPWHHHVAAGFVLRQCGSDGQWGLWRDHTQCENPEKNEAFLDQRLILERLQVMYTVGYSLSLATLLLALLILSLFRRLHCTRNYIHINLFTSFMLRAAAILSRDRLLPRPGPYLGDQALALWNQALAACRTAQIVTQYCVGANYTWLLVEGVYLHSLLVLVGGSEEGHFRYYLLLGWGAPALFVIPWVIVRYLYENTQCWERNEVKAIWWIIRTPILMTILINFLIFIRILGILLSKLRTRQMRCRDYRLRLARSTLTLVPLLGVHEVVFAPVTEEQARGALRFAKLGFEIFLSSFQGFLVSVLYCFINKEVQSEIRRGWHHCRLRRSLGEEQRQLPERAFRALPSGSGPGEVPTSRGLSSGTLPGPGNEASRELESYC
Experimental: as §1, §2, §3, §4, §5

SMILES | EC50 [1] [nM] | EC50 [2] [nM] | EC50 [3] [nM]
CC[C@H](C)[C@H](NC(=O)[C@H](Cc1ccccc1)NC(=O)[C@@H](NC(=O)CNC(=O)[C@H](CCC(=O)O)NC(=O)C(C)(C)NC(=O)[C@@H](N)Cc1ccc(O)cc1)[C@@H](C)O)C(=O)N[C@@H](CO)C(=O)N[C@@H](CC(=O)O)C(=O)N[C@@H](Cc1ccc(O)cc1)C(=O)N[C@@H](CO)C(=O)N[C@H](C(=O)N[C@@](C)(CC(C)C)C(=O)N[C@@H](CC(C)C)C(=O)N[C@@H](CC(=O)O)C(=O)N[C@@H](CCCCN)C(=O)N[C@@H](CCCCNC(=O)COCCOCCNC(=O)COCCOCCNC(=O)CC[C@H](NC(=O)CCCCCCCCCCCCCCCCCCC(=O)O)C(=O)O)C(=O)N[C@@H](Cc1c[nH]cn1)C(=O)N[C@@H](CCC(N)=O)C(=O)NC(C)(C)C(=O)N[C@@H](CC(=O)O)C(=O)N[C@@H](Cc1ccccc1)C(=O)N[C@H](C(=O)N[C@@H](CCC(=O)O)C(=O)N[C@@](C)(Cc1ccc(O)cc1)C(=O)N[C@@H](CC(C)C)C(=O)N[C@@H](CC(C)C)C(=O)N[C@@H](CCC(=O)O)C(=O)NCC(=O)NCC(=O)N1CCC[C@H]1C(=O)N[C@@H](CO)C(=O)N[C@@H](CO)C(=O)NCC(=O)N[C@@H](C)C(=O)N1CCC[C@H]1C(=O)N1CCC[C@H]1C(=O)N1CCC[C@H]1C(=O)N[C@@H](CO)C(N)=O)C(C)C)[C@@H](C)CC [Example 91] (H-Y[Aib]EGTFISDYSI[αMeL]LDKK([AEEA-AEEA-γGlu-C20 diacid])HQ[Aib]DFVE[αMeY]LLEGGPSSGAPPPS-NH2) | 530 | 289 | 0.0321
CC[C@H](C)[C@H](NC(=O)[C@H](Cc1ccccc1)NC(=O)[C@@H](NC(=O)CNC(=O)[C@H](CCC(=O)O)NC(=O)C(C)(C)NC(=O)[C@@H](N)Cc1ccc(O)cc1)[C@@H](C)O)C(=O)N[C@@H](CO)C(=O)N[C@@H](CC(=O)O)C(=O)N[C@@H](Cc1ccc(O)cc1)C(=O)N[C@@H](CO)C(=O)N[C@H](C(=O)N[C@@](C)(CC(C)C)C(=O)N[C@@H](CC(C)C)C(=O)N[C@@H](CC(=O)O)C(=O)N[C@@H](CCC(=O)O)C(=O)N[C@@H](CCCCNC(=O)COCCOCCNC(=O)COCCOCCNC(=O)CC[C@H](NC(=O)CCCCCCCCCCCCCCCCCCC(=O)O)C(=O)O)C(=O)N[C@@H](Cc1c[nH]cn1)C(=O)N[C@@H](CCC(N)=O)C(=O)NC(C)(C)C(=O)N[C@@H](CC(=O)O)C(=O)N[C@@H](Cc1ccccc1)C(=O)N[C@H](C(=O)N[C@@H](CCC(=O)O)C(=O)N[C@@H](Cc1ccncc1)C(=O)N[C@@H](CC(C)C)C(=O)N[C@@H](CC(C)C)C(=O)N[C@@H](C)C(=O)N[C@@H](C)C(=O)NCC(=O)N1CCC[C@H]1C(=O)N[C@@H](CO)C(=O)N[C@@H](CO)C(=O)NCC(=O)N[C@@H](C)C(=O)N1CCC[C@H]1C(=O)N1CCC[C@H]1C(=O)N1CCC[C@H]1C(=O)N[C@@H](CO)C(N)=O)C(C)C)[C@@H](C)CC [Example 85] | > 5000 | > 5000 | 0.0359
